Data from PubChem BioAssay (NCI).
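Each compound was tested at five concentrations against cells in 96-well plates for 48 hours. TGI is the concentration that stops growth completely.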

What was measured:
Assay in all cases: NCI anticancer screen, dose series, 48 h
HS 578T breast = test system: HS 578T breast
HOP-92 NSCLC = test system: HOP-92 NSCLC
UO-31 renal = test system: UO-31 renal
ACHN renal = test system: ACHN renal
SF-539 CNS = test system: SF-539 CNS
A498 renal = test system: A498 renal
RPMI-8226 leukemia = test system: RPMI-8226 leukemia
HT29 colon = test system: HT29 colon
MCF7 breast = test system: MCF7 breast
SK-OV-3 ovarian = test system: SK-OV-3 ovarian
MDA-MB-231 breast = test system: MDA-MB-231 breast
SK-MEL-5 melanoma = test system: SK-MEL-5 melanoma
MOLT-4 leukemia = test system: MOLT-4 leukemia
SN12C renal = test system: SN12C renal
TK-10 renal = test system: TK-10 renal
SW-620 colon = test system: SW-620 colon
DU-145 prostate = test system: DU-145 prostate
UACC-257 melanoma = test system: UACC-257 melanoma
NCI/ADR-RES ovarian = test system: NCI/ADR-RES ovarian

| SMILES | TGI (HS 578T breast) [µM] | TGI (HOP-92 NSCLC) [µM] | TGI (UO-31 renal) [µM] | TGI (ACHN renal) [µM] | TGI (SF-539 CNS) [µM] | TGI (A498 renal) [µM] | TGI (RPMI-8226 leukemia) [µM] | TGI (HT29 colon) [µM] | TGI (MCF7 breast) [µM] | TGI (SK-OV-3 ovarian) [µM] | TGI (MDA-MB-231 breast) [µM] | TGI (SK-MEL-5 melanoma) [µM] | TGI (MOLT-4 leukemia) [µM] | TGI (SN12C renal) [µM] | TGI (TK-10 renal) [µM] | TGI (SW-620 colon) [µM] | TGI (DU-145 prostate) [µM] | TGI (UACC-257 melanoma) [µM] | TGI (NCI/ADR-RES ovarian) [µM] |
| --- | --- | --- | --- | --- | --- | --- | --- | --- | --- | --- | --- | --- | --- | --- | --- | --- | --- | --- | --- |
| Brc1ccc(-c2ccc(-c3ccc(-c4ccc(Br)s4)s3)s2)s1 | > 100 | > 100 | > 100 | > 100 | > 100 | > 100 | > 100 | > 100 | > 100 | > 100 | > 100 | > 100 | > 100 | > 100 | > 100 | > 100 | > 100 | > 100 | > 100 |
| Cc1cc2c(cc1C)C(=O)c1ncccc1C2=O | > 100 | > 100 | > 100 | > 100 | 90 | > 100 | > 100 | > 100 | > 100 | > 100 | 67.1 | 23.2 | 74.2 | > 100 | > 100 | > 100 | > 100 | 46.3 | 70.8 |
| CC(C)(C)C1CCC2c3c([nH]c4ccccc34)C3C(=O)N(c4cccc(Cl)c4)C(=O)C3C2C1 (stereo not given) | > 68.1 | 18.9 | 15.1 | 44.2 | 35.5 | 53.7 | > 72.2 | 20 | 4.22 | 63.2 | 29.6 | 26.3 | 13 | 15.6 | 39 | 23.2 | 33.2 | 29.6 | 34 |
| C/C(=C/CNc1ncnc2c1ncn2CCC(=O)O)CO | > 100 | > 100 | > 100 | > 100 | > 100 | > 100 | > 100 | > 100 | > 100 | > 100 | > 100 | > 100 | > 100 | > 100 | > 100 | > 100 | > 100 | > 100 | > 100 |
| C/C(Sc1ccccc1)=C1/CCCN(Cc2ccccc2)C1 | 41.4 | 51.9 | 40.9 | > 100 | > 100 | > 100 | 43.3 | > 100 | 57.5 | > 100 | 76.5 | 28.6 | 39.4 |  | 60.4 | > 100 | > 100 | 44.6 | 74.1 |
| CCOC(=O)N/N=C/C1=NN(C(=O)OCC)S(=O)C1C (stereo not given) | > 100 | > 100 | > 100 | > 100 | > 100 | > 100 | > 100 | > 100 | > 100 | > 100 | > 100 | > 100 | > 100 | > 100 | > 100 | > 100 | > 100 | > 100 | > 100 |
| CCC(C#N)N(Cc1ccc(CN(C(=O)c2ccccc2)C(C#N)CC)cc1)C(=O)c1ccccc1 (stereo not given) | > 100 | 35.3 | 93.4 | > 100 | 48.6 | 65 | 42.7 | 43.9 | 93.6 | > 100 | 85.2 | 25.8 | 65 | 69.3 | 74.4 | 93 | > 100 | 49 | > 100 |
| CCOC(=O)c1ccc(-c2cccs2)n1C | > 100 | > 94.8 | > 100 | > 100 | > 100 | > 100 | > 100 | > 100 | > 100 | > 100 | > 100 | > 100 | > 100 | > 100 | > 100 | > 100 | > 100 | > 100 | > 100 |
| COc1ccc2cc(-c3ccc(OC)c(OC)c3)c(=O)oc2c1 | > 100 | > 100 | > 100 | > 100 | > 100 | > 100 | > 100 | > 100 | > 100 | > 100 | > 100 | > 100 | > 100 | > 100 | > 100 | > 100 | > 100 | > 100 | > 100 |
| C/C(=N/NC(=S)N1CCCCCC1)c1ccccc1O | > 100 | > 100 | > 88.3 | 39 | 28.5 | > 74 | 40.4 | 39.7 | > 100 | > 100 | > 66.8 | > 37.7 | 24.4 | 40.9 | > 100 | > 100 | > 69.4 | 30.9 | 8.35 |
| COc1cc(O)c2c(=O)c3ccccc3n(C)c2c1 | 59.2 | > 100 | > 100 | > 100 | > 100 | > 100 |  | > 100 | > 100 | > 100 | > 100 | > 100 | > 100 | > 100 | > 100 | > 100 | > 100 | > 100 | > 100 |
| COC(OC)C1(c2ccccc2)Oc2ccccc2C1=O (stereo not given) | > 100 | > 100 |  | > 100 | > 100 | > 100 | > 100 | > 100 | > 100 | > 100 | > 100 | > 100 | > 100 | > 100 | > 100 | > 100 | > 100 | > 100 | > 100 |
| O=C(O)C(F)(OC(F)(F)C(F)(F)C(F)(F)F)C(F)(F)F (stereo not given) | > 100 | > 100 | > 100 | > 100 | > 100 | > 100 | > 100 | > 100 | > 100 | > 100 | > 100 | > 100 | > 100 | > 100 | > 100 | > 100 | > 100 | > 100 | > 100 |
| O=c1oc2ccccc2c(-c2ccc(O)cc2)c1Oc1ccc(Cl)cc1 | > 100 | 52.9 | 51.9 | 97.2 | > 100 | 77.2 | 52.4 | 64.1 | 72.3 |  | 90.6 | 45.3 |  | 79.7 | 62.1 | > 100 | > 100 | 83.8 | 82.3 |
| O=C(O)c1cnccc1-c1cc(=O)[nH]n1-c1ccccc1 | > 100 | > 100 | > 100 | > 100 | > 71.2 | > 100 | > 100 | > 67.1 | > 100 | > 100 | > 100 | > 100 | > 77.6 | > 100 | > 100 | > 100 | > 100 | > 100 | > 100 |
| COc1ccc(-c2cn3c(nc4ccccc43)c(C)n2)cc1 | > 100 | > 100 | > 64.6 | > 100 | > 100 | > 100 | > 100 | > 100 | > 100 | 39.2 | > 100 | > 100 | > 100 | > 100 | > 100 | > 100 | > 100 | > 100 | > 100 |
| C#CCn1c(=O)c(C)cn(/C(=C/C(=O)OCC)C(=O)OCC)c1=O | 30 | 8.5 | 23.4 | 3.64 | 4.77 | 31.5 | > 27.7 | 4.88 | 13.7 | > 63.1 | 36.3 | 32.9 | 30.6 | 26.2 | 4.29 | 4.16 | 29.5 | 28.8 | 10.6 |
| Cn1ccnc1SC(F)(F)c1nc2ccccc2o1 | > 100 | > 100 | > 100 | > 100 | > 100 | > 100 | > 100 | > 100 | > 100 | > 100 | > 100 | > 100 | > 100 | > 100 | > 100 | > 100 | > 100 | > 100 | > 100 |
| O=[N+]([O-])c1nccn1CCCN=c1c2ccccc2n(O)c2ccccc12 | > 100 | > 100 | > 100 | > 100 | > 100 | > 100 | > 100 | > 100 | > 100 | > 100 | > 100 | > 100 | > 100 | > 100 | > 100 | > 100 | > 100 | > 100 | > 100 |
| N#Cc1cc2c(n(C3OC(CO)C(O)C(O)C3O)c1=S)CCCCC2 (stereo not given) | > 100 | > 100 | > 100 | > 100 | > 100 | > 100 | > 100 | > 100 | > 100 |  | > 100 | > 100 | > 100 | > 100 | > 100 |  | > 100 | > 100 | > 100 |
| C[C@@]12C[C@@H](c3ccccc3O1)N1CCSC1=N2 | > 100 | > 100 | > 100 | > 100 | > 100 | > 100 | > 100 | > 100 | > 100 | > 100 | > 100 | > 100 | > 100 | > 100 | > 100 | > 100 | > 100 | > 100 | > 100 |
| COC(=O)/C=C1/OC(c2ccc(Br)cc2)=C(Br)C1=O | 28.1 | 25.2 | 24.4 | 16.8 | 12.7 | 30.4 | 6.06 | 11.3 | 25.5 | 38.2 | 8.17 | 19.9 | 6.87 | 17.6 | 17.6 | 7.49 | 25.4 | 27.5 | 32.9 |
| C[C@]1(O)CC(=O)c2c(c(-c3ccc4cc5c(c(O)c4c3O)C(=O)C[C@@](C)(O)C5)c3cccc(O)c3c2O)C1 | 88 | 8.72 | 14.8 | 18 | 6.45 | 16.4 | 47.8 | 20 | > 100 | 24.4 | 19.3 | 14 | > 100 | 15.8 | 28 | 47 | 29 | 30.8 | 25.4 |
| COc1cccc2c3cccc(OC)c3c3[nH]cnc3c12 | 20.5 | 24 | 3.02 | 22.4 | 2.68 | 33.4 | 5.67 | 3 | 2.81 | 34.1 | 4.11 |  | 6.27 | 22.3 | 3.91 | 3.19 | 2.78 | 36.1 | 9.42 |
| NC(=O)ON=C1CCN(Cc2ccccc2)CC1 | > 100 | > 100 | > 100 | > 100 | > 100 | > 100 | > 100 | > 100 | > 100 | > 100 | > 100 | > 100 | > 100 | > 100 | > 100 | > 100 | > 100 | > 100 | > 100 |
| CSc1c(C#N)c(O)n(-c2ccc(Cl)cc2)c(=O)c1C#N | > 100 | 98 | > 100 |  | > 100 | > 100 | > 100 | > 100 | > 100 | > 100 | > 100 | > 100 | > 100 | > 100 | > 100 | > 100 | > 100 | > 100 | > 100 |
